Measured values published in the supplement of paper PMC10307832.

Experiments:
Experiment in all cases: relative viability (nuclei count vs DMSO), 5 days (fraction); higher = more cells survive
[1] = compound: O[C@H]1CC[C@H](Nc2ncc3nc(Nc4c(F)cc(F)cc4F)n([C@H]4CCOC4)c3n2)CC1 [Tanzisertib] + Cc1nc(Nc2ncc(C(=O)Nc3c(C)cccc3Cl)s2)cc(N2CCN(CCO)CC2)n1 [Dasatinib] (partner 0.075 µM)
How it was run: (§1)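 After 5 days of treatment, lung cancer cells in 1536-well plates were fixed and stained in a single step (final 0.05% Triton X-100, 1% formaldehyde, 1 ug/ml Hoechst) and their nuclei counted on 4× images. Treatment had been applied by pin tool the day after seeding as one drug alone or as a fixed anchor-drug dose with five library-drug doses (not always all listed) in √10 steps. Relative viability is the nuclei count of treated wells divided by that of vehicle wells, and values are medians of duplicate plates.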

[2] = compound: C[C@@H](N)c1ccc(C(=O)Nc2ccnc3[nH]ccc23)cc1 + N=C(N)NC(=N)NCCc1ccccc1 [Phenformin] (partner 250 µM)
How it was run: as §1

[3] = compound: O[C@H]1CC[C@H](Nc2ncc3nc(Nc4c(F)cc(F)cc4F)n([C@H]4CCOC4)c3n2)CC1 [Tanzisertib] + CC(=O)c1c(C)c2cnc(Nc3ccc(N4CCNCC4)cn3)nc2n(C2CCCC2)c1=O [Palbociclib] (partner 0.5 µM)
How it was run: as §1

[4] = compound: C1CNCCC1C2=CC(=NN2)C3=CC=NC=C3 + CC(=O)Nc1cccc(-n2c(=O)n(C3CC3)c(=O)c3c(Nc4ccc(I)cc4F)n(C)c(=O)c(C)c32)c1 [Trametinib] (partner 0.02 µM)
How it was run: as §1

For UMC-11, the relative viability ([1]; first compound 0.08 µM) was 0.487, the relative viability ([1]; first compound 0.253 µM) was 0.456 and the relative viability ([1]; first compound 0.8 µM) was 0.437. The relative viability ([1]; first compound 2.53 µM) was 0.449, the relative viability ([1]; first compound 8 µM) was 0.48 and the relative viability ([2]; first compound 0.04 µM) was 0.268. It also gave a relative viability ([2]; first compound 0.1265 µM) of 0.358, a relative viability ([2]; first compound 0.4 µM) of 0.354 and a relative viability ([2]; first compound 1.265 µM) of 0.228. For the same cell line, the relative viability ([2]; first compound 4 µM) was 0.234, the relative viability ([3]; first compound 0.08 µM) was 0.346 and the relative viability ([3]; first compound 0.253 µM) was 0.285. It also gave a relative viability ([3]; first compound 0.8 µM) of 0.319, a relative viability ([3]; first compound 2.53 µM) of 0.325 and a relative viability ([3]; first compound 8 µM) of 0.355. The relative viability ([4]; first compound 0.08 µM) was 0.554, the relative viability ([4]; first compound 0.8 µM) was 0.776 and the relative viability ([4]; first compound 2.53 µM) was 0.796. For the same cell line, the relative viability ([4]; first compound 8 µM) was 0.768.
